Experimental data published in patent publication US6872727B1, “Polycyclic pyrimidine -2,4(1H,3H)-diones with functionalized alkyl residues at the 1- and/or 3-position(s); methods for their synthesis and pharmaceutical preparation” (Privates Institut fur Biomedizinische Forschung und Beratung, priority 1999, dated 2005).

Experiments:
Format in all cases: biochemical
[1] = target: T1, catalytic domain of human matrix metalloproteinase-8 (MMP-8; neutrophil collagenase) (Homo sapiens, UniProt P22894); experiment: Inhibition of catalytic domain of human MMP-8, fluorimetric assay, Dixon plot; details: recombinant catalytic domain, Mca-Pro-Leu-Gly-Leu-Dap(Dnp)-Ala-Arg-NH2 substrate
T1 construct: express heterologously only the catalytic domain, rather than the entire MMP-8, in Escherichia coli; made in house; host or cells: Escherichia coli
From the text: The catalytic domain of MMP-8 was chosen as a further test enzyme because of its high stability and constitutive activity, obviating the need for enzymatic or chemical activation, which is a well-known source of error, e.g. the commonly used organomercurial compounds used to activate pro-MMPs may interfere in subsequent assays or affect the activity of the enzyme, leading to erroneous interpretation of results. The cloning strategy was designed to express heterologously only the catalytic domain, rather than the entire MMP-8, in Escherichia coli. With the so-constructed expressed catalytic domain, we obtained a stable enzymatically active, highly pure enzyme that is well suited for routine investigation of the efficacy of the synthetic inhibitors and provides highly reproducible test results.
The cloning and expression of the recombinant catalytic domain of MMP-8 follows the protocol developed by Schnierer et al. (Schnierer, S., Kleine, T., Gote, T., Hilleman, A., Knäuper, V., and Tschesche, H., 1993, The recombinant catalytic domain of human neutrophil collagenase lacks type I collagen substrate specificity, Biochem. Biophys. Res. Commun. 191, 319-326).
(§1) The enzymatic cleavage of commercially available synthetic internally quenched fluorigenic peptide substrates such as 7-methylcoumarin-4-yl-acetyl-prolyleucyl-glycyl-leucyl-(dinitrophenyl-L-α,β-diaminopropionyl)-alanyl-arginylamide (Mca-Pro-Leu-Gly-Leu-Dap(Dnp)-Ala-Arg-NH2) at the scissile -Gly-Leu-peptide bond separates the fluorescent Mca group from the dinitrophenol quencher, resulting in a strong linear increase in fluorescence intensity that can be readily measured in a fluorimeter (λexitation328 nm, λemission 393 nm) over the first few minutes of the reaction. The specificity of the assay for matrix metalloproteinases is provided by the type I collagen-derived sequence -Pro-Leu-Gly-Leu- in the synthetic substrate, as well as by the incubation conditions. To test the efficacy of the synthetic collagenase/MMP inhibitors, the residual enzymatic activity remaining after an incubation of enzyme plus different amounts of inhibitor is measured at a fixed enzyme and substrate concentration. For each inhibitor, three test series at different fixed substrate concentrations were carried out. From the time-dependent increase in fluorescence intensity measured, the velocity (v) of the enzymatic activity can be calculated as increase in arbitrary fluorescence intensity units per minute. The inhibition constant Ki is calculated graphically by the method of Dixon (1953) by plotting the reciprocal of the reaction velocity 1/v on the ordinate, and the inhibitor concentration on the abscissa. The x-intercept of the linear plot is defined as minus K1 value.
(§2) 1984 μl assay buffer (100 mM Tris-HCl pH 7,5, 100 mM NaCl, 10 mM CaCl2, 0,05% Brij 35) • 2 μl inhibitor dissolved in DMSO, or DMSO alone as a solvent control • 4 μl enzyme (MMP-2, MMP-9, or the catalytic domain of MMP-8) • 10 μl Mca-Pro-Leu-Gly-Leu-Dap(Dnp)-Ala-Arg-NH2 in DMSO Method • 1. Incubate buffer, enzyme, and inhibitor for 5 min at room temperature, with stirring. • 2. Start the reaction by adding 10 μl substrate in DMSO • 3. Record the increase in fluorescence intensity over 2 min. Confirmation of the Inhibitory Activity by Protein Zymographic Analysis

[2] = target: T2, human matrix metalloproteinase-2 (MMP-2; gelatinase A) (Homo sapiens, UniProt P08253); experiment: Inhibition of human matrix metalloproteinase-2 (gelatinase A); details: trypsin-activated MMP-2 from human dermal fibroblast culture supernatant; read-out: MMP-2 (50% inhibition)
T2 construct: to prepare the enzymatically active mature form of the enzyme; endogenous in cells; host or cells: human dermal fibroblasts (secreted into culture supernatant)
T2 sequence (P08253 110-660): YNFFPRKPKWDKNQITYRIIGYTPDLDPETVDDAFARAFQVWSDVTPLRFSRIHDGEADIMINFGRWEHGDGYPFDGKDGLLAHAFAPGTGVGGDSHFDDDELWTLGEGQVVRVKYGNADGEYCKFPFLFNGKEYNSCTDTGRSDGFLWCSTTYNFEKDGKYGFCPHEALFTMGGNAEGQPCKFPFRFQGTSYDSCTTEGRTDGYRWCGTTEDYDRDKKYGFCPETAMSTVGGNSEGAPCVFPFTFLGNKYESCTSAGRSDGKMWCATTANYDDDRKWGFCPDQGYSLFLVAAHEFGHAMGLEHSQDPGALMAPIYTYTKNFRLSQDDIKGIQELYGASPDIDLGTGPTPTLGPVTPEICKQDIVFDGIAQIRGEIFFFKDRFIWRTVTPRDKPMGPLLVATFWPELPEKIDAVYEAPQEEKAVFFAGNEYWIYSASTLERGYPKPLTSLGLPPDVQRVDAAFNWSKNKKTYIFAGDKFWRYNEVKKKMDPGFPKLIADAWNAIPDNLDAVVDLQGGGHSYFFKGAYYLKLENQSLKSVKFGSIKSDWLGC
From the text: MMP-2 is easily prepared by standard procedures from the culture medium of cultivated human fibroblasts in reasonable quantities, and is therefore readily available. […] A screening system based on the measurement of the proteolytic activity of MMP-2 was developed to analyse the inhibitory effects of the various inhibitors described in Table 1.
To this end, human dermal fibroblasts were obtained and maintained in culture using standard methods. The cell-free culture supernatant containing the secreted pro-MMP-2 was treated with trypsin. The trypsin was inactivated with the specific active-site serine proteinase inhibitor Nα-p-tosyl-L-lysine-chloromethylketone (TLCK), and the active MMP-2 was partially purified by gel filtration on Sepharose 4B. The isolated MMP-2 was identified and characterized by the use of a commercially available immunoassay.
A simple nonradioactive assay was developed to measure MMP-2 activity using gelatin as a substrate that allows both a large number of samples to be analysed in parallel and to generate kinetic data. Partially purified MMP-2 was incubated with a suitable dilution of gelatin under standardized conditions (time, buffer, pH, temperature, inhibitor, additives), and uncleaved gelatin was separated from degradation products by suction filtration through a nitrocellulose filter. High-molecular-weight gelatin is thereby bound to the nitrocellulose filter, and the low-molecular-weight gelatin-derived peptides pass through it. The nitrocellulose-bound gelatin can be stained with Ponceau S or Commassie Brilliant Blue protein stains, and the degree of staining quantified densitometrically using a commercially available electrophoresis gel documentation system supported by dedicated analytical software. The nitrocellulose filtration is conducted using a commercially available dot- or slot-blotting apparatus.
The gelatinase assay described here has been validated by comparison with results obtained with an established collagenase assay using radioactive or fluorescently labeled collagen as substrate.
as §1
1984 μl assay buffer (100 mM Tris-HCl pH 7,5, 100 mM NaCl, 10 mM CaCl2, 0,05% Brij 35) • 2 μl inhibitor dissolved in DMSO, or DMSO alone as a solvent control • 4 μl enzyme (MMP-2, MMP-9, or the catalytic domain of MMP-8) • 10 μl Mca-Pro-Leu-Gly-Leu-Dap(Dnp)-Ala-Arg-NH2 in DMSO Method • 1. […]

[3] = target: Clostridium histolyticum collagenase (EC 3.4.24.3); experiment: Inhibition of Clostridium histolyticum collagenase, spectrophotometric FALGPA assay; details: chromogenic substrate FALGPA; read-out: C. histolyticum (50% inhibition)
From the text: The activity of Clostidium histolyticum collagenase may be readily determined by a simple spectrophotometric assay using the synthetic chromogenic peptide substrate N-(3-[2-furyl]acryloyi)-leucine-glycine-proline-alanine (FALGPA; Van Hart, H. E. and Steinbrink, D. R. 1981, Anal. Biochem. 113, 356). The degree of inhibition of the degradation of this chromogenic substrate by the addition of the various test substances described in Table 1 may be easily quantified. The enzyme and substrate are commercially available.

[4] = target: T3, human matrix metalloproteinase-9 (MMP-9; gelatinase B) (Homo sapiens, UniProt P14780); experiment: Inhibition of human matrix metalloproteinase-9 (gelatinase B); details: trypsin-activated native MMP-9 from human buffy coat; read-out: MMP-9 (50% inhibition)
T3 construct: from tissue; host or cells: human buffy coat (blood leukocytes)
Description: Native MMP-9 was reproducibly obtained with reasonable yield and purity from human buffy coat. Buffy coat, to which was added an appropriate volume of 10% (v/v) Triton-X-100 to obtain a final concentration of 0,4% detergent, was shaken on ice for 30 min; then, one volume of twofold-concentrated binding buffer (40 mM Tris-HCl pH 7,5, 10 mM CaCl2, 1 M NaCl, 0,2% (v/v) Triton X-100 was added and the mixture shaken on ice for a further 30 min.
The mixture was then centrifuged for 15 min at 16,000 rpm (30,590×g) in a Kendro SS-34 rotor at 4° C. and the resulting supernatant filtered over glass wool. The filtrate was incubated batchwise with gelatin-agarose equilibrated in binding buffer for 1 h on ice with continuous shaking The MMP-9-bound gelatin-agarose was then loaded into a chromatographic tube and the column washed with at least ten bed volumes of binding buffer, or until no protein was detected by absorbance at 280 nm in the wash buffer. MMP-9 was eluted from the gelatin affinity column by application of two bed volumes of binding buffer containing 5% (v/v) dimethylsulfoxide (DMSO).
The eluate was applied to a gel filtration column of Sephadex G-75 both to exchange buffer and to eliminate small amounts of contaminating MMP-2. The G-75 column was prepared and eluted with Buffer I [20 mM Tris-HCl pH 7,5, 5 mM CaCl2, 100 mM NaCl, 0,1% (v/v) Triton X-100].
The eluted MMP-9 includes the three characterized forms of the enzyme: monomer, homodimer, and heterodimer (complex with lipokalin). The purity of MMP-9 was estimated to be ca. 90%, with the remaining contaminating protein being fibronectin and small amounts of TIMPS.
The latent MMP-9 was activated by a 30-60 min incubation at 37° C. with 1/100 vol trypsin (10 mg ml^−1). The trypsin was subsequently inactivated by addition of the serine proteinase inhibitor phenlymethylsulfonylfluoride (PMSF) or the more specific trypsin inhibitor TLCK.
as §1
as §2, with “Confirmation of the Inhibitory Activity by Protein Zymographic Analysis” left out

T1 sequence (P22894 100-262 limits assumed): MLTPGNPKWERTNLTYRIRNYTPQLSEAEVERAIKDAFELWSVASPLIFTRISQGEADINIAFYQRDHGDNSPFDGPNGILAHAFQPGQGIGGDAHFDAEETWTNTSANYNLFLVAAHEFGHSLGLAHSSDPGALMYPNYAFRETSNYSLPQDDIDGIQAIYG
T3 sequence (P14780 107-707 limits assumed): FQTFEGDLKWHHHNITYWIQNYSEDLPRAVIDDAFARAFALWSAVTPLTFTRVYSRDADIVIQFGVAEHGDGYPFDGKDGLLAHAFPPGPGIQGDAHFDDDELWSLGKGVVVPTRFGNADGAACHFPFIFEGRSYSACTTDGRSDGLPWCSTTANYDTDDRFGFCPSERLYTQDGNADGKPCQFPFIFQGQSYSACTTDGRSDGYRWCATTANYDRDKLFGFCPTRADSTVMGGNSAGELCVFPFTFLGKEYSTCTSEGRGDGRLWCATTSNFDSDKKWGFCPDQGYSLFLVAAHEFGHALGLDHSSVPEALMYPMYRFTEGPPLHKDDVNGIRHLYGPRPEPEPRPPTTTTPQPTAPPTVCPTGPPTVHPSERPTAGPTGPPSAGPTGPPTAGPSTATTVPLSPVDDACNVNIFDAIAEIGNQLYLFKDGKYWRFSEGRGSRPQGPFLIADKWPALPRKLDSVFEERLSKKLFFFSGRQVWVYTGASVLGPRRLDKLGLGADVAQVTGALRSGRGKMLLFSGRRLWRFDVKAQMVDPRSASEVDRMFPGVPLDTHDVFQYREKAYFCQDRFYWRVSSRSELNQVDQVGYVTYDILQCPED

Compound | Ki [1] [µM] | IC50 [2] [µM] | IC50 [3] [µM] | MMP-8 (Ki value) [1] | IC50 [4] [µM]
CC(S)Cn1c(=O)[nH]c(=O)c2ccccc21 (racemic) [Example 1, (R,S)-1-(2-mercaptopropyl)-chinazolin-2,4(1H,3H)-dione] | 33.3 | 23.3 | 21 | – | –
CC(CS)Cn1c(=O)[nH]c2ccccc2c1=O (racemic) [Example 19, (R,S)-3-[3-(2-methyl)-mercaptopropyl]chinazolin-2,4(1H,3H)-dione] | 3 | 7.1 | – | – | –
CC(C)(S)Cn1c(=O)[nH]c(=O)c2ccccc21 [Example 2, 1-(2-mercapto-2-methylpropyl)-chinazolin-2,4(1H,3H)-dione] | – | 143 | – | negative | –
Cn1c(=O)c2ccccc2n(CCS)c1=O [Example 6, 1-(2-mercaptoethyl)-3-methylchinazolin-2,4(1H,3H)-dione] | – | 97.1 | 13.1 | negative | –
CCn1c(=O)c2ccccc2n(CCS)c1=O [Example 8, 3-ethyl-1-(2-mercaptoethyl)-chinazolin-2,4(1H,3H)-dione] | – | – | 39.4 | negative | –
CCn1c(=O)c2ccccc2n(CCCS)c1=O [Example 9, 3-ethyl-1-(3-mercaptoprop-1-yl)-chinazolin-2,4(1H,3H)-dione] | – | 13.9 | – | – | 43.4
COc1cc2c(=O)n(C)c(=O)n(CCS)c2cc1OC [Example 10, 6,7-dimethoxy-1-(2-mercaptoethyl)-3-methyl-chinazolin-2,4(1H,3H)-dione] | – | 6.3 | 31.5 | – | –
O=c1c2ccccc2n(CCS)c(=O)n1Cc1ccccc1 [Example 11, 3-benzyl-1-(2-mercaptoethyl)-chinazolin-2,4(1H,3H)-dione] | 33.3 | – | 22.4 | – | –
O=c1[nH]c2ccccc2c(=O)n1CCCCCS [Example 13, 3-(5-mercaptopent-1-yl)-chinazolin-2,4(1H,3H)-dione] | 20 | – | – | – | –
Cn1c(=O)c2ccccc2n(CCCSCC(=O)NO)c1=O [Example 20, N-hydroxy-2-[3-(methyl-2,4-dioxo-3,4-dihydro-2H-chinazolin-1-yl)-propylsulfanyl]acetamide] | – | – | – | – | 71.4
